Structures are written as SMILES.

The target in this experiment is T1, human P2X4 (Homo sapiens, UniProt Q99571).
T1 sequence (Q99571 1-388): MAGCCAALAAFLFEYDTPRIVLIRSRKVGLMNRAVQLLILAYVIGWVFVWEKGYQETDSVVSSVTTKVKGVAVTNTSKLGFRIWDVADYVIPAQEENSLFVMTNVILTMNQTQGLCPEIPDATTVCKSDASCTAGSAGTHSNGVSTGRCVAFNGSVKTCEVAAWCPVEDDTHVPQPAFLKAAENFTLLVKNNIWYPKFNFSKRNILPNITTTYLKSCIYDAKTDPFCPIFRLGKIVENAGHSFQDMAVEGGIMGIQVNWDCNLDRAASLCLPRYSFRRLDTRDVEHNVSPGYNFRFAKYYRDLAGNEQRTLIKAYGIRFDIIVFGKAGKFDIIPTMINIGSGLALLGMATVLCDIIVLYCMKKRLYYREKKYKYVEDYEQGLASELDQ
Put plainly: Human P2X4 HEK Cell FLIPR Assay. The class given is cell-based. Conditions: agonist Bz-ATP at EC80; for Emax: HEK293, HEK293 cells, percentage of maximal inhibition, read-out: Human P2X4 HEK Cells (FLIPR Assay) avg Efficacy [%]; for IC50: HEK293 cells, individual values listed where some fall outside detection range. As for the experimental part: HEK293 cells stably expressing human P2X4 were plated in poly-D-lysine-coated 384-well plates at a seeding density of 30000 cells/well and incubated overnight. P2X4 function was assessed by measuring intracellular calcium changes using the calcium-chelating dye Fluo8-AM (Molecular Devices) on a fluorescent imaging plate reader (FLEX/FLIPR station; Molecular Devices). On the day of the assay, the medium was removed and the cells were incubated for 30 min at 37° C. and 5% CO2 in 30 μL of dye buffer (Hank's balanced salt solution, 10 mM HEPES, 1.8 mM CaCl2, 1 mM MgCl2, 2 mM probenecid, 5 mM D-glucose monohydrate, 5 μM Fluo8-AM, pH=7.4). Compounds diluted in probenecid buffer (Hank's balanced salt solution, 10 mM HEPES, 1.8 mM CaCl2, 1 mM MgCl2, 2 mM probenecid, 5 mM D-glucose monohydrate, pH=7.4) were added in a volume of 10 μL and allowed to incubate for 30 min at room temperature. The final assay DMSO concentration was 0.5%. The agonist, Bz-ATP (Tocris), was added in a volume of 10 μL at a concentration representing the EC80 value. The EC80 value of Bz-ATP was determined each assay day prior to compound profiling. The fluorescence was measured for an interval of 120 sec at 2 sec intervals. The excitation and emission wavelengths used to monitor fluorescence were 470-495 nm and 515-575 nm, respectively. The data was analyzed based on the increase in peak relative fluorescence units (RFU) compared to the basal fluorescence and the data was normalized to the agonist control. The compounds were tested in triplicates per plate and mean values were plotted in Excel XLFit to determine IC50 values, percentage of maximal inhibition and the Hill coefficients.

The term IC50 denotes the concentration at which inhibition is half-maximal. Read a high IC50 as a need for much substance. Regarding `CC(C)(C)c1ncn(-c2ccc(NC(=O)Cc3ccccc3Cl)cc2S(N)(=O)=O)n1` [Example 23, N-[4-(3-tert-Butyl-1H-1,2,4-triazol-1-yl)-3-sulfamoylphenyl]-2-(2-chlorophenyl)-acetamide], the Emax stood at 89% and the IC50 was determined as 1.18 µM. Take `NS(=O)(=O)c1cc(NC(=O)Cc2ccccc2Cl)ccc1-n1cc(Cl)cn1` [Example 25, 2-(2-Chlorophenyl)-N-[4-(4-chloro-1H-pyrazol-1-yl)-3-sulfamoylphenyl]acetamide]: the Emax amounted to 93%.

With `CC(C)Oc1cnn(-c2ccc(NC(=O)Cc3ccccc3Cl)cc2S(N)(=O)=O)c1` [Example 27, 2-(2-Chlorophenyl)-N-[4-(4-isopropoxy-1H-pyrazol-1-yl)-3-sulfamoylphenyl]-acetamide], the Emax came to 74% and the IC50 stood at 0.07 µM. For `CC(C)Cc1ncn(-c2ccc(NC(=O)Cc3ccccc3Cl)cc2S(N)(=O)=O)n1` [Example 29, 2-(2-Chlorophenyl)-N-[4-(3-isobutyl-1H-1,2,4-triazol-1-yl)-3-sulfamoylphenyl]-acetamide], in that order: 75% and 0.113 µM. The corresponding values for `CSc1cnn(-c2ccc(NC(=O)Cc3ccccc3Cl)cc2S(N)(=O)=O)c1` [Example 30, 2-(2-Chlorophenyl)-N-{4-[4-(methylsulfanyl)-1H-pyrazol-1-yl]-3-sulfamoylphenyl}-acetamide] are 87% and 0.222 µM.

Consider `COc1cnn(-c2ccc(NC(=O)Cc3ccccc3Cl)cc2S(N)(=O)=O)c1` [Example 31, 2-(2-Chlorophenyl)-N-[4-(4-methoxy-1H-pyrazol-1-yl)-3-sulfamoylphenyl]acetamide], for which the Emax is 81% and the IC50 was found to be 0.112 µM. The corresponding values for `NS(=O)(=O)c1cc(NC(=O)Cc2ccccc2Cl)ccc1-n1cnc2ccccc21` [Example 32, N-[4-(1H-Benzimidazol-1-yl)-3-sulfamoylphenyl]-2-(2-chlorophenyl)acetamide] are 93% and 0.139 µM. As for `NS(=O)(=O)c1cc(NC(=O)Cc2ccccc2Cl)ccc1-n1cnc(Cl)c1` [Example 33, N-[4-(4-Chloro-1H-imidazol-1-yl)-3-sulfamoylphenyl]-2-(2-chlorophenyl)acetamide], the Emax came to 79% and the IC50 was determined as 0.031 µM.

Take `CN(C)c1ncn(-c2ccc(NC(=O)Cc3ccccc3Cl)cc2S(N)(=O)=O)n1` [Example 34, 2-(2-Chlorophenyl)-N-{4-[3-(dimethylamino)-1H-1,2,4-triazol-1-yl]-3-sulfamoyl-phenyl}acetamide]: the Emax stood at 79% and the IC50 was 0.448 µM. The corresponding values for `CCc1ncn(-c2ccc(NC(=O)Cc3ccccc3Cl)cc2S(N)(=O)=O)n1` [Example 35, 2-(2-Chlorophenyl)-N-[4-(3-ethyl-1H-1,2,4-triazol-1-yl)-3-sulfamoylphenyl]acetamide] are 90% and 0.224 µM. For `NS(=O)(=O)c1cc(NC(=O)Cc2ccccc2Cl)ccc1-n1cnc(C2CC2)n1` [Example 36, (2-Chlorophenyl)-N-[4-(3-cyclopropyl-1H-1,2,4-triazol-1-yl)-3-sulfamoylphenyl]-acetamide], in that order: 81% and 0.667 µM. Turning to `NS(=O)(=O)c1cc(NC(=O)Cc2ccccc2Cl)ccc1-n1ncnc1C1CC1` [Example 37, 2-(2-Chlorophenyl)-N-[4-(5-cyclopropyl-1H-1,2,4-triazol-1-yl)-3-sulfamoyl-phenyl]acetamide], the Emax was determined as 81% and the concentration for half-maximal inhibition (IC50) came to 0.848 µM. The corresponding values for `COCc1ncn(-c2ccc(NC(=O)Cc3ccccc3Cl)cc2S(N)(=O)=O)n1` [Example 38, 2-(2-Chlorophenyl)-N-{4-[3-(methoxymethyl)-1H-1,2,4-triazol-1-yl]-3-sulfamoyl-phenyl}acetamide] are 87% and 0.329 µM. For `CC(C)(C)c1cn(-c2ccc(NC(=O)Cc3ccccc3Cl)cc2S(N)(=O)=O)cn1` [Example 40, N-[4-(4-tert-Butyl-1H-imidazol-1-yl)-3-sulfamoylphenyl]-2-(2-chlorophenyl)acetamide], in that order: 90% and 1.24 µM.

For `N#Cc1ncn(-c2ccc(NC(=O)Cc3ccccc3Cl)cc2S(N)(=O)=O)n1` [Example 41, 2-(2-Chlorophenyl)-N-[4-(3-cyano-1H-1,2,4-triazol-1-yl)-3-sulfamoylphenyl]acetamide], the Emax is 70% and the IC50 was determined as 0.357 µM. The corresponding values for `NS(=O)(=O)c1cc(NC(=O)Cc2ccccc2Cl)ccc1-n1cnc(Br)c1` [Example 42, N-[4-(4-Bromo-1H-imidazol-1-yl)-3-sulfamoylphenyl]-2-(2-chlorophenyl)acetamide] are 71% and 0.024 µM.

For `NS(=O)(=O)c1cc(NC(=O)Cc2ccccc2Cl)ccc1-n1cnc2cccnc21` [Example 43, 2-(2-Chlorophenyl)-N-[4-(3H-imidazo[4,5-b]pyridin-3-yl)-3-sulfamoylphenyl]-acetamide], the Emax amounted to 87% and the IC50 amounted to 0.21 µM. For `NS(=O)(=O)c1cc(NC(=O)Cc2ccccc2Cl)ccc1-n1cnc2ncccc21` [Example 44, 2-(2-Chlorophenyl)-N-[4-(1H-imidazo[4,5-b]pyridin-1-yl)-3-sulfamoylphenyl]-acetamide], in that order: 97% and 0.378 µM. For `NS(=O)(=O)c1cc(NC(=O)Cc2ccccc2Cl)ccc1-n1cnc2cnccc21` [Example 45, 2-(2-Chlorophenyl)-N-[4-(1H-imidazo[4,5-c]pyridin-1-yl)-3-sulfamoylphenyl]-acetamide], in that order: 74% and 0.075 µM. The corresponding values for `NS(=O)(=O)c1cc(NC(=O)Cc2ccccc2Cl)ccc1-n1cnc2ccncc21` [Example 46, 2-(2-Chlorophenyl)-N-[4-(3H-imidazo[4,5-c]pyridin-3-yl)-3-sulfamoylphenyl]-acetamide] are 87% and 0.916 µM. For the compound `Cc1cn(-c2ccc(NC(=O)Cc3ccccc3Cl)cc2S(N)(=O)=O)c(C)n1` [Example 47, 2-(2-Chlorophenyl)-N-[4-(2,4-dimethyl-1H-imidazol-1-yl)-3-sulfamoylphenyl]-acetamide], the Emax was 66% and the IC50 is 0.472 µM.

On to `NS(=O)(=O)c1cc(NC(=O)Cc2ccccc2F)ccc1-n1cc(F)cn1` [Example 48, 2-(2-Fluorophenyl)-N-[4-(4-fluoro-1H-pyrazol-1-yl)-3-sulfamoylphenyl]acetamide], for which the Emax came to 82% and the IC50 was determined as 0.297 µM. For `NS(=O)(=O)c1cc(NC(=O)Cc2ccccc2C(F)F)ccc1-n1cc(Cl)cn1` [Example 49, N-[4-(4-Chloro-1H-pyrazol-1-yl)-3-sulfamoylphenyl]-2-[2-(difluoromethyl)-phenyl]acetamide], in that order: 94% and 0.135 µM. For `NS(=O)(=O)c1cc(NC(=O)Cc2ccccc2F)ccc1-n1cc(Cl)cn1` [Example 50, N-[4-(4-Chloro-1H-pyrazol-1-yl)-3-sulfamoylphenyl]-2-(2-fluorophenyl)acetamide], in that order: 88% and 0.149 µM. The corresponding values for `NS(=O)(=O)c1cc(NC(=O)Cc2ccccc2C(F)F)ccc1-n1cc(F)cn1` [Example 51, 2-[2-(Difluoromethyl)phenyl]-N-[4-(4-fluoro-1H-pyrazol-1-yl)-3-sulfamoyl-phenyl]acetamide] are 94% and 0.134 µM.

As to `N#Cc1cnn(-c2ccc(NC(=O)Cc3ccccc3F)cc2S(N)(=O)=O)c1` [Example 52, N-[4-(4-Cyano-1H-pyrazol-1-yl)-3-sulfamoylphenyl]-2-(2-fluorophenyl)acetamide], the Emax amounted to 82% and the IC50 came out at 0.154 µM. The corresponding values for `COc1ccccc1CC(=O)Nc1ccc(-n2cnc(C(F)(F)F)n2)c(S(N)(=O)=O)c1` [Example 53, 2-(2-Methoxyphenyl)-N-{3-sulfamoyl-4-[3-(trifluoromethyl)-1H-1,2,4-triazol-1-yl]-phenyl}acetamide] are 52% and 0.169 µM.
